In brackets after ≈: the same amount, converted by molar mass. Like-named read-outs stand apart in the source and are kept apart here.
Tests used:
[1] = molecular target: glycolate oxidase (GOX) in HepaRG-CAR cells (Homo sapiens (Human), UniProt Q9UJM8); test: HepaRG-CAR cell-based assay for quantitation of glycolate oxidase inhibition (cellular glycolate flux, GC-MS)
[2] = Solubility in phosphate buffered saline (PBS), pH 7.4; format: physicochemical; details: phosphate buffered saline pH 7.4, 1% DMSO, 1 hour shaking at room temperature
Procedure, shortened: (§1)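 DMSO stock (10 mM) diluted into 100 mM phosphate buffer pH 7.4, or into deionized distilled water for the aqueous assay, at 1% final DMSO and shaken 1 h at room temperature. After centrifugation, supernatants quantified by LC-MS/MS against a calibration curve with internal standard.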

[3] = molecular target: recombinant full-length human hydroxyacid oxidase 1 (HAO1), the equivalent of hGOX (Homo sapiens (Human), UniProt Q9UJM8); test: In-vitro human glycolate oxidase (hGOX) assay (Amplex red/HRP fluorescence); format: biochemical
Description: Biological Activity Assay: In-Vitro Human Glycolate Oxidase (hGOX) Assay
The in-vitro glycolate oxidase assay was performed using recombinant full-length human hydroxyacid oxidase 1 (HAO1), the equivalent of hGOX. […] Purified HAO1 was dissolved in assay buffer consisting of 10 mM NaCl, 110 mM KCl, 2 mM MgCl2, 50 mM HEPES (pH 7.4) and 0.01% Triton™ X-100.

[4] = Stability in human plasma; format: in vitro ADME; details: for half-life at 2 μM: read-out: Plasma Stability T1/2
Procedure, shortened: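 Pooled human plasma (pH 7.4-8) at 37° C, test compound spiked from a 0.02 mM solution in phosphate buffer with 0.5% BSA. Samples taken at 0, 5, 15, 30, 45 and 60 min, quenched with acetonitrile containing internal standard, and remaining compound measured by LC/MS.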

[5] = Metabolic stability in human liver microsomal preparation; format: in vitro ADME; details: human liver microsomes, NADPH, 37° C.; for CLint scaled at 1 μM / half-life at 1 μM: pH 7.4; for half-life at 1 μM: read-out: Metabolic Stability t1/2
Procedure, shortened: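 Compound at 1.5 μM with 0.75 mg/mL human liver microsomes (concentrations before NADPH addition) in 0.1 M potassium phosphate, 1 mM EDTA, pH 7.4 was preincubated 5 min at 37 °C, then started with NADPH. Samples at 0, 5, 15, 30 and 45 min were quenched with acetonitrile/internal standard and analysed by LC/MS.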

[6] = Protein binding (plasma equilibrium dialysis); format: in vitro ADME; details: 5 hours at 37° C.; for fraction unbound at 5 h, 1 μM: read-out: Protein Binding Fraction Bound (converted)
Procedure, shortened: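 Compound spiked into plasma at 1 μM final (0.2% DMSO) and dialysed against phosphate buffer for 5 hours at 37 °C with shaking. Donor and receiver samples, matrix-matched and acetonitrile-quenched with internal standard, quantified by LC/MS/MS alongside 0-hour plasma samples.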

[7] = Solubility in aqueous solution (deionized, distilled water); format: physicochemical; details: 1% DMSO, read-out: Aqueous Solubility H2O
Procedure, shortened: as §1

[8] = HepaRG-CAR cells, 500 μM glycolate, 48 hours incubation, read-out: IC50
[9] = phosphate buffer (PBS), aqueous buffer, kinetic from dmso stock

recombinant full-length human hydroxyacid oxidase 1 (HAO1), the equivalent of hGOX, sequence (Q9UJM8 whole entry): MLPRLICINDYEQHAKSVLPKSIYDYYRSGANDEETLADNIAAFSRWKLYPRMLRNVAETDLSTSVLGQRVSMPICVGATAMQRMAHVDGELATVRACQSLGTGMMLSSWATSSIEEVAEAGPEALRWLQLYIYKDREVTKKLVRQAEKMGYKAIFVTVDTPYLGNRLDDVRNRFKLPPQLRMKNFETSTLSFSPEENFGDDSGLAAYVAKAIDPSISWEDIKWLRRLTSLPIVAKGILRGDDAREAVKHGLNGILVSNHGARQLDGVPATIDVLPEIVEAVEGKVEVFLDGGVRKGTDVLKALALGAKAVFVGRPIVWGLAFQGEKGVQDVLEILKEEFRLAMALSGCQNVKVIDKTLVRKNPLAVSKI
glycolate oxidase (GOX) in HepaRG-CAR cells, sequence (Q9UJM8 whole entry): as above

Row | SMILES | IC50 [1, 8] | solubility at 1 h [2, 9] | IC50 [3] | half-life at 2 μM [4] | CLint scaled at 1 μM [5] | half-life at 1 μM ([5]; 0-45 min) | recovery at 5 h, 1 μM [6] | solubility at 1 h ([7]; kinetic from dmso stock) | solubility at 1 h ([2]; read-out: Aqueous Solubility PBS) | IC50 ([3]; 12.5 nM HAO1, 85 μM glycolate, 2.5% DMSO, read-out: IC50) | Plasma Stability T1/2 [4] | Metabolic Stability Clint [5] | Metabolic Stability t1/2 ([5]; 0-45 min) | Protein Binding Recovery ([6]; 1 μM) | solubility at 1 h [7] | IC50 [1] | fraction unbound at 5 h, 1 μM [6]
1 | O=C(O)c1nn[nH]c1Oc1cccc(-c2ccc(Cl)cc2)c1 [Example I-252, 5-((4′-Chloro-[1,1′-biphenyl]-3-yl)oxy)-1H-1,2,3-triazole-4-carboxylic acid] | 2000 nM | 104 µM (≈ 32.8 µg/mL) | 13 nM | 5.02 h | 7.66 mL/min/kg | 3.78 h | 97.1% | 98 µM (≈ 30.9 µg/mL) | – | – | – | – | – | – | – | – | –
2 | O=C(O)c1nn[nH]c1Oc1cccc(-c2ccccc2)c1 [Example I-249, 5-([1,1′-Biphenyl]-3-yloxy)-1H-1,2,3-triazole-4-carboxylic acid] | 2000 nM | 103 µM (≈ 29.1 µg/mL) | 19 nM | 3.71 h | 5 mL/min/kg | 5.79 h | 99.2% | 108 µM (≈ 30.2 µg/mL) | – | – | – | – | – | – | – | – | –
3 | Cc1ccc(-c2cccc(Oc3[nH]nnc3C(=O)O)c2)cc1 [Example I-251, 5-((4′-Methyl-[1,1′-biphenyl]-3-yl)oxy)-1H-1,2,3-triazole-4-carboxylic acid] | 2500 nM | 108 µM (≈ 31.9 µg/mL) | 13 nM | 4.87 h | 17.7 mL/min/kg | 1.64 h | 98.2% | 101 µM (≈ 29.8 µg/mL) | – | – | – | – | – | – | – | – | –
4 | Cc1cc(Oc2[nH]nnc2C(=O)O)ccc1Br [Example I-037, 5-(4-Bromo-3-methylphenoxy)-1H-1,2,3-triazole-4-carboxylic acid] | 400 nM | 96.8 µM (≈ 28.9 µg/mL) | 34 nM | 0.786 h | < 0.15 mL/min/kg | > 83.3 h | 105% | 96.1 µM (≈ 28.6 µg/mL) | – | – | – | – | – | – | – | – | –
5 | O=C(O)c1nn[nH]c1Oc1ccc(-c2ccccn2)cc1 [Example I-261, 5-(4-(Pyridin-2-yl)phenoxy)-1H-1,2,3-triazole-4-carboxylic acid] | > 10000 nM | – | – | – | – | – | – | – | 101.5 µM (≈ 28.6 µg/mL) | 150 nM | 1.328 h | 1.58 mL/min/kg | 18.301 h | 111.0% | 105 µM (≈ 29.6 µg/mL) | – | –
6 | O=C(O)c1[nH]nnc1Oc1ccc(-c2ccc(Cl)c(Cl)c2)cc1 [Example I-171, 5-((3′,4′-Dichloro-[1,1′-biphenyl]-4-yl)oxy)-1H-1,2,3-triazole-4-carboxylic acid] | > 10000 nM | 96.3 µM (≈ 33.7 µg/mL) | 10 nM | 1.93 h | 14.4 mL/min/kg | 2.01 h | 87.5% | 45.8 µM (≈ 16 µg/mL) | – | – | – | – | – | – | – | – | –
7 | COc1ccc(-c2cccc(Oc3[nH]nnc3C(=O)O)c2)cc1 [Example I-250, 5-((4′-Methoxy-[1,1′-biphenyl]-3-yl)oxy)-1H-1,2,3-triazole-4-carboxylic acid] | – | 110 µM (≈ 34.1 µg/mL) | 25 nM | 2.43 h | 8.95 mL/min/kg | 3.24 h | 98.8% | 99.4 µM (≈ 30.9 µg/mL) | – | – | – | – | – | – | – | > 5000 nM | 0.089
8 | COc1cccc(-c2ccc(Oc3[nH]nnc3C(=O)O)cc2)c1 [Example I-158, 5-((3′-Methoxy-[1,1′-biphenyl]-4-yl)oxy)-1H-1,2,3-triazole-4-carboxylic acid] | – | 106 µM (≈ 33 µg/mL) | 8 nM | 4.77 h | < 0.15 mL/min/kg | > 83.3 h | 92.5% | 101 µM (≈ 31.4 µg/mL) | – | – | – | – | – | – | – | 5000 nM | –
9 | O=C(O)c1nn[nH]c1Oc1cccc(-c2ccccc2F)c1 [Example I-254, 5-((2′-Fluoro-[1,1′-biphenyl]-3-yl)oxy)-1H-1,2,3-triazole-4-carboxylic acid] | 2500 nM | 114 µM (≈ 34.1 µg/mL) | 17 nM | 2.51 h | 3.82 mL/min/kg | 7.58 h | 94.4% | 106 µM (≈ 31.7 µg/mL) | – | – | – | – | – | – | – | – | –
10 | CCC(CC)c1ccc(Oc2[nH]nnc2C(=O)O)cc1 [Example I-272, 5-(4-(Pentan-3-yl)phenoxy)-1H-1,2,3-triazole-4-carboxylic acid] | – | 103 µM (≈ 28.3 µg/mL) | 84 nM | 4.61 h | 65.3 mL/min/kg | 0.443 h | 101% | 96.6 µM (≈ 26.6 µg/mL) | – | – | – | – | – | – | – | – | –
11 | O=C(O)c1[nH]nnc1Oc1ccc(-c2ccc(Cl)cc2)cc1 [Example I-152, 5-((4′-Chloro-[1,1′-biphenyl]-4-yl)oxy)-1H-1,2,3-triazole-4-carboxylic acid] | 10000 nM | – | 17 nM | 3.22 h | – | – | 97.7% | – | – | – | – | – | – | – | – | – | –
12 | O=C(O)c1nn[nH]c1Oc1ccc(C2CC2)cc1 [Example I-294, 5-(4-Cyclopropylphenoxy)-1H-1,2,3-triazole-4-carboxylic acid] | – | 108 µM (≈ 26.4 µg/mL) | 53 nM | 1.71 h | 3.4 mL/min/kg | 8.52 h | 111% | 108 µM (≈ 26.4 µg/mL) | – | – | – | – | – | – | – | – | –
13 | O=C(O)c1[nH]nnc1Oc1ccc(Cl)c(Cl)c1 [Example I-050, 5-(3,4-Dichlorophenoxy)-1H-1,2,3-triazole-4-carboxylic acid] | – | 120 µM (≈ 33 µg/mL) | 12 nM | 2.35 h | 2.47 mL/min/kg | 11.7 h | 71.2% | 102 µM (≈ 28 µg/mL) | – | – | – | – | – | – | – | – | –
14 | COc1cc(-c2ccc(Oc3[nH]nnc3C(=O)O)cc2)ccc1F [Example I-271, 5-((4′-Fluoro-3′-methoxy-[1,1′-biphenyl]-4-yl)oxy)-1H-1,2,3-triazole-4-carboxylic acid] | – | 110 µM (≈ 36.2 µg/mL) | 7 nM | 2.82 h | 3.49 mL/min/kg | 8.31 h | 110% | 90.1 µM (≈ 29.7 µg/mL) | – | – | – | – | – | – | – | – | 0.01
15 | O=C(O)c1nn[nH]c1Oc1cccc(S(F)(F)(F)(F)F)c1 [Example I-269, 5-(3-Pentafluorosulfanylphenoxy)-1H-1,2,3-triazole-4-carboxylic acid] | – | 109 µM (≈ 36 µg/mL) | 105 nM | 2.19 h | < 0.15 mL/min/kg | > 83.3 h | 91.8% | 103 µM (≈ 34.2 µg/mL) | – | – | – | – | – | – | – | – | 0.01
16 | CS(=O)(=O)c1ccc(-c2ccc(Oc3[nH]nnc3C(=O)O)cc2)cc1 [Example I-167, 5-((4′-(methylsulfonyl)-[1,1′-biphenyl]-4-yl)oxy)-1H-1,2,3-triazole-4-carboxylic acid] | – | 116 µM (≈ 41.9 µg/mL) | 8 nM | 6.19 h | 1.7 mL/min/kg | 17 h | 95.5% | 112 µM (≈ 40.4 µg/mL) | – | – | – | – | – | – | – | – | –
